From ChEMBL document CHEMBL1150961, “Tenuecyclamides A-D, cyclic hexapeptides from the cyanobacterium Nostoc spongiaeforme var. tenue” (1998)

Tested on: Paracentrotus lividus
Assay: Inhibition of sea urchin egg fertilization by sea urchin sperm assessed as inhibition of divided eggs
Format: functional

Row | Compound | ED100 [µM]
1 | Cc1oc2nc1C(=O)NC(C)c1nc(cs1)C(=O)NC(C)c1nc(cs1)C(=O)N[C@H]2C (stereo partly drawn) [TENUECYCLAMIDE A] | 10.8
2 | CSCC[C@@H]1NC(=O)c2csc(n2)CNC(=O)c2nc(oc2C)[C@H](C)NC(=O)c2csc1n2 [TENUECYCLAMIDE C] | 9
3 | Cc1oc2nc1C(=O)NCc1nc(cs1)C(=O)N[C@@H](CC[S+](C)[O-])c1nc(cs1)C(=O)N[C@H]2C (stereo partly drawn) [TENUECYCLAMIDE D] | 19.1
